One assay relates to HCV genotype 1b replicon. The assay is described as follows: HCV replicon luciferase reporter assay, genotype 1b (LE_1b). The assay is classed as cell-based. The following applies: Hepatitis C virus, 72 h, HUH-7 cells, genotype 1b (Con1) replicon, 3 days incubation, Renilla luciferase. From the text:
An HCV replicon whole cell system was established as described by Lohmann V, Korner F, Koch J, Herian U, Theilmann L, Bartenschlager R., Science 285(5424):110-3 (1999) and modified to introduce a luciferase reporter, as first described by Krieger et al (Krieger N, Lohmann V, and Bartenschlager R, J. Virol. 75(10):4614-4624 (2001)). cDNA encoding a humanized form of the Renilla luciferase gene and a linker sequence fused directly to the 3′-end of the luciferase gene were introduced into the replicon construct using an Asc1 restriction site located in core, directly upstream of the neomycin marker gene. The adaptive mutation at position 1179 (serine to isoleucine) was also introduced (Blight K J, Kolykhalov, A A, Rice, C M, Science 290(5498):1972-1974). A stable cell line constitutively expressing this HCV replicon construct was generated by first linearizing plasmid DNAs with ScaI. RNA transcripts were synthesized in vitro using the T7 MegaScript transcription kit (Ambion, Austin, Tex.) according to manufacturer's directions. In vitro transcripts of the cDNA were transfected into the human hepatoma cell line, HUH-7. […] Resulting cell lines were characterized for positive and negative strand RNA production and protein production over time. […]
(§1) HCV replicon luciferase assays were developed to monitor the inhibitory effects of compounds described in the disclosure on HCV genotypes 1a and 1b viral replication. HUH-7 cells, constitutively expressing the HCV replicon, were grown in Dulbecco's Modified Eagle Media (DMEM) (Gibco-BRL) containing 10% Fetal calf serum (FCS) (Sigma) and 1 mg/mL G418 (Gibco-BRL). Compounds were serially diluted 3 folds in DMSO for a twenty-point titration and subsequently transferred to sterile 384-well tissue-culture treated plates (Corning cat #3571). The plates were then seeded with 50 μL of cells at a density of 3.0×10^3 cells/well in DMEM containing 4% FCS (final DMSO concentration at 0.5%). After 3 days incubation at 37° C., cells were analyzed for Renilla Luciferase activity using the EnduRen as substrate (Promega cat #E6485). The EnduRen substrate was diluted in DMEM and then added to the plates to a final concentration of 7.5 μM. The plates were incubated for 2 hrs at 37° C. and then read immediately for 30 seconds with Viewlux Imager (PerkinElmer) using a luminescence program. To assess cytotoxicity of compounds, CC50 values were generated by multiplexing the EnduRen-containing plates with Cell Titer-Blue (Promega, cat #G8082). Cell-Titer Blue (3 μL) was added to each well and incubated for 8 hrs at 37° C. The fluorescence signal from each well was read, with an excitation wavelength at 525/10 nm and an emission wavelength of 598/10 nm, using the Viewlux Imager.
(§2) The EC50 values for compounds were calculated by using a four-parameter logistic equation: y=A+((B−A)/(1+((C/x)^D))), where A and B denotes minimal and maximal % inhibition, respectively, C is the EC50, D is the hill slope and x represents compound concentration.
For orientation: A replicon is a self-replicating genome or part of one, used to study replication in cells.

The test system of the next assay is HCV genotype 1a replicon. The experiment in a line: HCV replicon luciferase reporter assay, genotype 1a (LE_1a). The assay is classed as cell-based. The conditions noted are these: Hepatitis C virus, 72 h, HUH-7 cells, genotype 1a H77 replicon, 3 days incubation, Renilla luciferase.
Excerpt: An HCV replicon whole cell system was established as described by Lohmann V, Korner F, Koch J, Herian U, Theilmann L, Bartenschlager R., Science 285(5424):110-3 (1999) and modified to introduce a luciferase reporter, as first described by Krieger et al (Krieger N, Lohmann V, and Bartenschlager R, J. Virol. 75(10):4614-4624 (2001)). cDNA encoding a humanized form of the Renilla luciferase gene and a linker sequence fused directly to the 3′-end of the luciferase gene were introduced into the replicon construct using an Asc1 restriction site located in core, directly upstream of the neomycin marker gene. The adaptive mutation at position 1179 (serine to isoleucine) was also introduced (Blight K J, Kolykhalov, A A, Rice, C M, Science 290(5498):1972-1974). A stable cell line constitutively expressing this HCV replicon construct was generated by first linearizing plasmid DNAs with ScaI. RNA transcripts were synthesized in vitro using the T7 MegaScript transcription kit (Ambion, Austin, Tex.) according to manufacturer's directions. In vitro transcripts of the cDNA were transfected into the human hepatoma cell line, HUH-7. […] Resulting cell lines were characterized for positive and negative strand RNA production and protein production over time.
A stable HCV replicon luciferase reporter cell line representing the genotype 1a H77 strain (Yanagi M, Purcell R H, Emerson S U, et al. Transcripts from a single full-length cDNA clone of hepatitis C virus are infectious when directly transfected into the liver of a chimpanzee. Proc Natl Acad Sci USA 1997; 94(16):8738-8743) was generated as described previously for the genotype 1b(Con1) replicon luciferase cell line. The replicon construct was modified by introducing mutations were introduced into the genes encoding the NS3 helicase domain (proline replaced by leucine at position 1496) and NS5A (serine to isoleucine at position 2204) to improve replication in cell culture.
as §1, §2

One may read the EC50 as the concentration giving half of the maximal effect.

Read-outs that look alike come from different tables or passages of the source.

Regarding `CC[C@@H]1C[C@H](C)CC/C=C\[C@@H]2C[C@@]2(C(=O)NS(=O)(=O)C2(C)CC2)NC(=O)[C@@H]2C[C@@H](Oc3ncc(-c4nc(C(C)(C)C)cs4)c4cc(OC)ccc34)CN2C(=O)[C@H]1NC(=O)OC(C)(C)C` [Compound 4274, tert-butyl((2R,6S,7R,9R,13aS,14aR,16aS,Z)-2-((4-(4-(tert-butyl)thiazol-2-yl)-6-methoxyisoquinolin-1-yl)oxy)-7-ethyl-9-methyl-14a-(((1-methylcyclopropyl)sulfonyl)carbamoyl)-5,16-dioxo-1,2,3,5,6,7,8,9,10,11,13a,14,14a,15,16,16a-hexadecahydrocyclopropa[e]pyrrolo[1,2-a][1,4]diazacyclopentadecin-6-yl)carbamate], the EC50 in the assay on HCV genotype 1b replicon (read-out: LE_1b (EC50, range)) fell in the range of 1.01 to 5 nM; in the assay on HCV genotype 1a replicon (read-out: LE_1a (EC50, range)) it was 5.01 to 35 nM.
Consider `CC[C@@H]1C[C@H](C)CC/C=C\[C@@H]2C[C@@]2(C(=O)NS(=O)(=O)C2CC2)NC(=O)[C@@H]2C[C@@H](Oc3ncc(-c4cnco4)c4cc(OC)ccc34)CN2C(=O)[C@H]1NC(=O)OC(C)(C)C(F)(F)F` [Compound 4293], for which the EC50 lay in the range of 0.51 to 1 nM with HCV genotype 1b replicon (read-out: LE_1b (EC50, range)) and 1.01 to 5 nM with HCV genotype 1a replicon (read-out: LE_1a (EC50, range)).
`[2H]C([2H])([2H])C1(S(=O)(=O)NC(=O)[C@@]23C[C@H]2/C=C\CC[C@@H](C)C[C@@H](CC)[C@H](NC(=O)OC(C)(C)C(F)F)C(=O)N2C[C@H](Oc4nccc5cc(OCC)c(F)cc45)C[C@H]2C(=O)N3)CC1` [Compound 5521]: the concentration giving a half-maximal response (EC50) was 0.47 nM in the assay with HCV genotype 1b replicon (read-out: LE_1b (EC50)); 0.1 to 0.5 nM with HCV genotype 1b replicon (read-out: LE_1b (EC50, range)); 1.23 nM in the assay with HCV genotype 1a replicon (read-out: LE_1a (EC50)); 1.01 to 5 nM in the assay with HCV genotype 1a replicon (read-out: LE_1a (EC50, range)).
As to `Cc1cnc(-c2ccc3nc(C(F)(F)F)c(O[C@@H]4C[C@H]5C(=O)N[C@]6(C(=O)NS(=O)(=O)C7(C)CC7)C[C@H]6/C=C\CC[C@@H](C)C[C@@H](C)[C@H](NC(=O)OC(C)(C)C(F)(F)F)C(=O)N5C4)nc3c2)o1` [Compound 7002], the EC50 in the assay on HCV genotype 1b replicon (read-out: LE_1b (EC50, range)) was in the range of 0.51 to 1 nM; in the assay on HCV genotype 1a replicon (read-out: LE_1a (EC50, range)) it was 1.01 to 5 nM.
The like results for `CC[C@@H]1C[C@H](C)CC/C=C\[C@@H]2C[C@@]2(C(=O)NS(=O)(=O)C2(C)CC2)NC(=O)[C@@H]2C[C@@H](Oc3ncc(-c4cnco4)c4cc(OC)ccc34)CN2C(=O)[C@H]1NC(=O)OC(C)(C)C(F)(F)F` [Compound 4291] were, in that order, 0.51 to 1 nM and 1.01 to 5 nM.
As for `C[C@@H]1CC/C=C\[C@@H]2C[C@@]2(C(=O)NS(=O)(=O)C2(C)CC2)NC(=O)[C@@H]2C[C@@H](Oc3nc4nccn4c4ccccc34)CN2C(=O)[C@@H](NC(=O)OC(C)(C)C(F)(F)F)[C@H](C)C1` [Compound 6127], the EC50 in the assay with HCV genotype 1b replicon (read-out: LE_1b (EC50, range)) was in the range of 5.01 to 35 nM; with HCV genotype 1a replicon (read-out: LE_1a (EC50, range)) it was 5.01 to 35 nM.
Regarding `CC[C@@H]1C[C@H](C)CC/C=C\[C@@H]2C[C@@]2(C(=O)NS(=O)(=O)C2CC2)NC(=O)[C@@H]2C[C@@H](Oc3ncc(C(=O)OC)c4cc(OC)ccc34)CN2C(=O)[C@H]1NC(=O)OC(C)(C)C(F)(F)F` [Compound 4286, methyl 1-(((2R,6S,7R,9R,13aS,14aR,16aS,Z)-14a-((cyclopropylsulfonyl)carbamoyl)-7-ethyl-9-methyl-5,16-dioxo-6-((((1,1,1-trifluoro-2-methylpropan-2-yl)oxy)carbonyl)amino)-1,2,3,5,6,7,8,9,10,11,13a,14,14a,15,16,16a-hexadecahydrocyclopropa[e]pyrrolo[1,2-a][1,4]diazacyclopentadecin-2-yl)oxy)-6-methoxyisoquinoline-4-carboxylate], the EC50 in the assay with HCV genotype 1b replicon (read-out: LE_1b (EC50, range)) lay in the range of 0.51 to 1 nM; with HCV genotype 1a replicon (read-out: LE_1a (EC50, range)), 1.01 to 5 nM.
On to `CC[C@@H]1C[C@H](C)CC/C=C\[C@@H]2C[C@@]2(C(=O)NS(=O)(=O)C2(C)CC2)NC(=O)[C@@H]2C[C@@H](Oc3cc(-n4ccnc4)nc4cc(OC)ccc34)CN2C(=O)[C@H]1NC(=O)OC(C)(C)C(F)(F)F` [Compound 4281], for which the EC50 in the assay on HCV genotype 1b replicon (read-out: LE_1b (EC50, range)) is 5.01 to 35 nM; in the assay with HCV genotype 1a replicon (read-out: LE_1a (EC50, range)), 5.01 to 35 nM.
`CC[C@@H]1C[C@H](C)CC/C=C\[C@@H]2C[C@@]2(C(=O)NS(=O)(=O)C2(C)CC2)NC(=O)[C@@H]2C[C@@H](Oc3ncc(-c4nccs4)c4cc(OC)ccc34)CN2C(=O)[C@H]1NC(=O)OC(C)(C)C(F)(F)F` [Compound 4258]: the EC50 fell in the range of 1.01 to 5 nM with HCV genotype 1b replicon (read-out: LE_1b (EC50, range)) and 1.01 to 5 nM with HCV genotype 1a replicon (read-out: LE_1a (EC50, range)).
Consider `CC[C@@H]1C[C@H](C)CC/C=C\[C@@H]2C[C@@]2(C(=O)NS(=O)(=O)C2CC2)NC(=O)[C@@H]2C[C@@H](Oc3ncc(-c4nc(C(C)(C)C)cs4)c4cc(OC)ccc34)CN2C(=O)[C@H]1NC(=O)OC(C)(C)C(F)(F)F` [Compound 4288], for which the half-maximal effective concentration (EC50) in the assay with HCV genotype 1b replicon (read-out: LE_1b (EC50, range)) lay within 5.01 to 35 nM; in the assay with HCV genotype 1a replicon (read-out: LE_1a (EC50, range)) it was 5.01 to 35 nM.
Regarding `C[C@@H]1CC/C=C\[C@@H]2C[C@@]2(C(=O)NS(=O)(=O)C2(CF)CC2)NC(=O)[C@@H]2C[C@@H](Oc3nc4nccn4c4ccc(Cl)cc34)CN2C(=O)[C@@H](NC(=O)OC(C)(C)C(F)(F)F)[C@H](C)C1` [Compound 6131], the EC50 in the assay with HCV genotype 1b replicon (read-out: LE_1b (EC50, range)) is 1.01 to 5 nM; with HCV genotype 1a replicon (read-out: LE_1a (EC50, range)) it was 5.01 to 35 nM.
The like results for `CC[C@@H]1C[C@H](C)CC/C=C\[C@@H]2C[C@@]2(C(=O)NS(=O)(=O)C2(C)CC2)NC(=O)[C@@H]2C[C@@H](Oc3ncc(-c4nc(C(C)(C)C)cs4)c4cc(OC)ccc34)CN2C(=O)[C@H]1NC(=O)OC(C)(C)C(F)(F)F` [Compound 4275] were, in that order, 5.01 to 35 nM and 5.01 to 35 nM.
On to `Cc1cn2c(n1)nc(O[C@@H]1C[C@H]3C(=O)N[C@]4(C(=O)NS(=O)(=O)C5(CF)CC5)C[C@H]4/C=C\CC[C@@H](C)C[C@@H](C)[C@H](NC(=O)OC(C)(C)C(C)(F)F)C(=O)N3C1)c1cc(Cl)ccc12` [Compound 6141], for which the concentration giving a half-maximal response (EC50) in the assay with HCV genotype 1b replicon (read-out: LE_1b (EC50, range)) lay in the range of 1.01 to 5 nM; in the assay on HCV genotype 1a replicon (read-out: LE_1a (EC50, range)), 5.01 to 35 nM.
The like results for `C[C@@H]1CC/C=C\[C@@H]2C[C@@]2(C(=O)NS(=O)(=O)C2(C)CC2)NC(=O)[C@@H]2C[C@@H](Oc3nc4cc(C(=O)OC(C)(C)C)ccc4nc3C(F)(F)F)CN2C(=O)[C@@H](NC(=O)OC(C)(C)C(C)(F)F)[C@H](C)C1` [Compound 7001, tert-butyl 3-(((2R,6S,7R,9R,13aS,14aR,16aS,Z)-6-((((3,3-difluoro-2-methylbutan-2-yl)oxy)carbonyl)amino)-7,9-dimethyl-14a-(((1-methylcyclopropyl)sulfonyl)carbamoyl)-5,16-dioxo-1,2,3,5,6,7,8,9,10,11,13a,14,14a,15,16,16a-hexadecahydrocyclopropa[e]pyrrolo[1,2-a][1,4]diazacyclopentadecin-2-yl)oxy)-2-(trifluoromethyl)quinoxaline-6-carboxylate] were, in that order, 0.51 to 1 nM and 1.01 to 5 nM.
Taken in the same sequence, the figures for `CC[C@@H]1C[C@H](C)CC/C=C\[C@@H]2C[C@@]2(C(=O)NS(=O)(=O)C2CC2)NC(=O)[C@@H]2C[C@@H](Oc3nc4cc(OC)ccc4nc3C3CC3)CN2C(=O)[C@H]1NC(=O)OC(C)(C)C` [Compound 4307] were 1.01 to 5 nM and 1.01 to 5 nM.

Source of the values: US9643999B2 (Bristol-Myers Squibb Company, priority 2012, dated 2017).
